Converted amounts (≈) assume the structure as drawn.

Data set [1] deals with ischemia. The conditions noted are these: ischemia with elevation of HNE; cited from earlier work.
A short description of data set [2]: partition coefficient (Log P), oil and water system. It counts as physicochemical. Conditions: worked out from Log P. From the text:
Lipophilic molecule: Attracted to lipids. A molecule is lipophilic if it preferentially partitions into the oily side of an oil and water system.

The conditions of data set [3]: oil and water system; cited from earlier work.
The subject of data set [4] is protein carbonyls in synaptosomal membranes. The conditions noted are these: cited from earlier work.
Data set [5] has as its system Ehrilich ascites tumor cells. The conditions noted are these: intracellular concentrations up to 0.6 mM; cited from earlier work.
Data set [6] in a line: experimental self-consumption by the applicant, tolerability. Type of data set: in vivo, human. Conditions: 240 mg/day for several weeks.
The conditions of data set [7]: cited from earlier work.
The subject of data set [8] is glutathione content of cells. Conditions: daily dosage of 1000 mg, multiple myeloma patients, with arsenic trioxide; cited from earlier work.

With `CC1=NN(c2ccccc2)C(=O)C1` [edaravone], in data set [1], the “effect of treatment in ischemia” value is given as “protective effect”.

For the molecule `CCCS` [propyl mercaptan, 1-PropaneThiol], the “ratio of concentration on the oily side to the aqueous side” value in data set [2] is given as approximately 100. Moreover, the “partition coefficient (Log P)” value in data set [3] is 1.95.

On to Acrolein, for which the “protein carbonyls, "C+Acrolein" bar” value in data set [4] (synaptosomal membranes, acrolein without GEE pretreatment) is recorded as 552 % of "Control".

For `CC(O)C=CC=O` (stereo not drawn) [HPE], in data set [5], the “effect on protein sulfhydryls or enzyme activities” value is listed as “no effect” and the “low molecular weight thiols” value is given as “depleted”.

For `C=CCS` [allyl mercaptan, AllylThiol], in data set [6], the “negative effects on consumption” value is recorded as “without any apparent negative effects” and the “standard comprehensive blood test at the end of the experiment” value is given as “essentially normal”. Besides, the solubility in water in data set [7] was 5000 µg/mL (≈ 67.4 mM).

As to `O=C1O[C@H]([C@@H](O)CO)C(O)=C1O` [vitamin C], the “glutathione depletion, mean percentage decrease” value in data set [8] is 60%.

For the molecule `CCOC(=O)CNC(=O)[C@H](CS)NC(=O)CC[C@H](N)C(=O)O` [GEE, Glutathione Ethyl Ester], in data set [4] (GEE alone, no acrolein), the “protein carbonyls, % of Control” value is reported as 85%. Moreover, the “protein carbonyls, "GEE+Acrolein" bar” value in data set [4] (synaptosomal membranes pretreated with GEE (3 hours), then acrolein) is recorded as 163 % of "Control".
